Key:
HBV = experiment: HepAD38 antiviral assay: reduction of viral product accumulation (virion DNA by qPCR, HBsAg or HBeAg by ELISA); format: cell-based; conditions: Hepatitis B virus, 120 h; HepAD38 cells, five days after compound addition; 50% reduction of viral product accumulation relative to no drug controls; read-out: HepAD38 EC50
Description: (§1) Methods: HepAD38 cells are maintained as previously reported (Ladner et al, Antimicrob. Agents Chemother. 1997, […], 1715). Briefly, cells are passaged upon attaining confluency in DMEM/F12 media in the presence of 10% FBS, Penn/Strep, 250 μg/mL G418, and 1 ug/ml tetracycline. Novel compounds are screened by first washing cells three times with PBS to remove tetracycline, and plating in 96 well plates at 35,000 cells/well. Compounds dissolved in DMSO are then diluted 1:200 into wells containing cells. Five days after compound addition, material is harvested for analysis. For an extended 8 day analysis, cells are plated and treated as described above, but media and compound are refreshed on d2 and d5 post initial treatment.
On harvest day, virion DNA is obtained by lysing with Sidestep Lysis and Stabilization Buffer and then quantified via quantitative real time PCR. Commercially available ELISA kits are used to quantitate the viral proteins HBsAg (Alpco) or HbeAg (US Biological) by following the manufacturer's recommended protocol after diluting samples to match the linear range of their respective assays. Irrespective of readout, compound concentrations that reduce viral product accumulation in the cell lysates or supernatants by 50% relative to no drug controls (EC50) are reported; EC50 ranges are as follows: A<1 μM; B 1-10 μM; C>10 μM.

[1] = Compound toxicity, ATPLite total ATP levels; format: cell-based; conditions: human, HepAD38 cells; 15,000 cells/well, three days after compound addition; 50% reduction of total ATP levels relative to no drug controls
Description: as §1
Compound toxicity is evaluated by seeding cells at 15,000 cells/well and treating with compound as described above. Three days after compound addition, cells are treated with ATPLite reagent and compound concentrations that reduce total ATP levels in wells by 50% relative to no drug controls (CC50) are reported; CC50 ranges are as follows: A>30 μM; B 10-30 μM; C<10 μM.

SMILES	EC50 (HBV) [nM]	CC50 at 3 days [1] [µM]
O=S(=O)(c1cc2nc(-c3ccccc3)[nH]c2cc1Cl)N1CCC(O)CC1 [Example 2]	> 10000	< 10
O=S(=O)(c1cc2nc(-c3cc(F)c(F)c(F)c3)[nH]c2cc1Cl)N1CCC(O)CC1 [Example 3]	> 10000	> 30
O=S(=O)(c1c(Cl)ccc2c(-c3ccccc3)n[nH]c12)N1CCC(O)CC1 [Example 4]	> 10000	> 30
O=S(=O)(c1c(Cl)ccc2c(-c3cc(F)c(F)c(F)c3)n[nH]c12)N1CCC(O)CC1 [Example 5]	1000 to 10000	> 30
O=S(=O)(c1cc(-c2n[nH]c3ccccc23)ccc1Cl)N1CCC(O)CC1 [Example 6]	> 10000	> 30
O=S(=O)(c1cc(-c2ncc(-c3ccc(F)c(F)c3)[nH]2)cs1)N1CCC(O)CC1 [Example 7]	1000 to 10000	> 30
O=S(=O)(c1cc(-c2cc(-c3ccc(F)c(F)c3)[nH]n2)ccc1Cl)N1CCC(O)CC1 [Example 8]	< 1000	10 to 30
O=S(=O)(c1cc(-c2nc3ccccc3[nH]2)ccc1Cl)N1CCC(O)CC1 [Example 9]	> 10000	10 to 30
O=S(=O)(c1cc(-c2nc3cc(F)c(F)cc3[nH]2)ccc1Cl)N1CCC(O)CC1 [Example 10]	1000 to 10000	> 30
O=S(=O)(c1cc(-c2ncc(-c3ccccc3)[nH]2)ccc1Cl)N1CCC(O)CC1 [Example 11]	1000 to 10000	> 30
O=S(=O)(c1cc(-c2ncc(-c3ccc(F)c(F)c3)[nH]2)ccc1Cl)N1CCC(O)CC1 [Example 12]	< 1000	> 30
O=S(=O)(c1cc(-c2ncc(-c3ccc(F)c(Cl)c3)[nH]2)ccc1Cl)N1CCC(O)CC1 [Example 13]	< 1000	10 to 30
O=S(=O)(c1cc(-c2ncc(-c3ccc(F)c(Br)c3)[nH]2)ccc1Cl)N1CCC(O)CC1 [Example 14]	< 1000	10 to 30
O=S(=O)(c1ccc2[nH]c(-c3ccccc3)nc2c1)N1CCC(O)CC1 [Example 15]	> 10000	> 30
O=S(=O)(c1cc(-c2cnc(-c3ccc(F)c(F)c3)[nH]2)ccc1Cl)N1CCC(O)CC1 [Example 16]	1000 to 10000	> 30
O=S(=O)(c1cc(-c2nc(-c3ccc(Br)c(F)c3)c[nH]2)ccc1Cl)N1CCC(O)CC1 [Example 18]	< 1000	10 to 30
O=S(=O)(c1cc(-c2ncc(-c3cccs3)[nH]2)ccc1Cl)N1CCC(O)CC1 [Example 21]	< 1000	> 30
N#Cc1cc(-c2cnc(-c3ccc(Cl)c(S(=O)(=O)N4CCC(O)CC4)c3)[nH]2)ccc1F [Example 22]	< 1000	> 30
O=S(=O)(c1cc(-c2nnc(-c3ccc(F)c(F)c3)[nH]2)ccc1Cl)N1CCC(O)CC1 [Example 23]	1000 to 10000	10 to 30
O=S(=O)(c1cc(-c2cc(-c3ccc(F)c(Br)c3)[nH]n2)ccc1Cl)N1CCC(O)CC1 [Example 24]	1000 to 10000	< 10

SMILES	EC50 (HBV) [nM]	CC50 at 3 days [1] [µM]
Cc1cc(-c2cc(-c3ccc(Cl)c(S(=O)(=O)N4CCC(O)CC4)c3)n[nH]2)ccc1F [Example 25]	1000 to 10000	10 to 30
O=S(=O)(c1cc(-c2ncc(-c3ccc(F)c(F)c3)o2)ccc1Cl)N1CCC(O)CC1 [Example 26]	> 10000	> 30
O=S(=O)(c1cc(-c2nc(-c3ccc(F)c(C(F)F)c3)c[nH]2)ccc1Cl)N1CCC(O)CC1 [Example 248]	> 10000	–
O=S(=O)(c1cc(-c2nc(-c3ccc(Br)c(F)c3)c[nH]2)ccc1Cl)N1CCN(C2CCCCC2F)CC1 (centres unmarked) [Example 249]	< 1000	–
O=S(=O)(c1cc(-c2nc(-c3ccc(Br)c(F)c3)c[nH]2)ccc1Cl)N1CCN([C@@H]2CCCC[C@H]2O)CC1 [Example 250]	< 1000	–
COC(=O)NCCCCCCCNS(=O)(=O)c1cc(-c2nc(-c3ccc(Br)c(F)c3)c[nH]2)ccc1Cl [Example 251]	< 1000	–
CC(C)(C)OC(=O)NCCCCCCCNS(=O)(=O)c1cc(-c2nc(-c3ccc(Br)c(F)c3)c[nH]2)ccc1Cl [Example 252]	< 1000	–
O=S(=O)(c1cc(-c2nc(-c3ccc(Br)c(F)c3)c[nH]2)ccc1Cl)N1CC[C@@H](CO)C1 [Example 253]	< 1000	–
O=S(=O)(c1cc(-c2nc(-c3ccc(Br)c(F)c3)c[nH]2)ccc1Cl)N1CC[C@H](CO)C1 [Example 254]	< 1000	–
O=S(=O)(c1cc(-c2nc(-c3ccc(Br)c(F)c3)c[nH]2)ccc1Cl)N1CC(O)C(CO)C1 (centres unmarked) [Example 255]	< 1000	–
O=S(=O)(c1cc(-c2ncc(-c3ccc(Br)c(F)c3)[nH]2)ccc1Cl)N1CCC2(O)CC2C1 (centres unmarked) [Example 256]	< 1000	–
O=S(=O)(c1cc(-c2ncc(-c3ccc(Br)c(F)c3)[nH]2)ccc1Cl)N1CCC2CC2(O)C1 (centres unmarked) [Example 257]	< 1000	–
CC1(C)CN(S(=O)(=O)c2cc(-c3ncc(-c4ccc(Br)c(F)c4)[nH]3)ccc2Cl)CCC1O (centres unmarked) [Example 258]	< 1000	–
O=S(=O)(c1cc(-c2nc(-c3ccc(Br)c(F)c3)c[nH]2)ccc1Cl)N1C[C@H](O)[C@@H](O)C1 [Example 259]	< 1000	–
O=S(=O)(c1cc(-c2ncc(-c3ccc(Br)c(F)c3)[nH]2)ccc1Cl)N1CCC[C@@H](CO)C1 [Example 261]	< 1000	–
O=S(=O)(c1cc(-c2ncc(-c3ccc(Br)c(F)c3)[nH]2)ccc1Cl)N1CCC[C@H](CO)C1 [Example 262]	< 1000	–
O=S(=O)(c1cc(-c2nc(-c3ccc(Br)c(F)c3)c[nH]2)ccc1Cl)N1CCC[C@H](O)[C@H](O)C1 [Example 263]	< 1000	–
O=S(=O)(c1cc(-c2nc(-c3ccc(Br)c(F)c3)c[nH]2)ccc1Cl)N1CCC[C@@H](O)[C@@H](O)C1 [Example 264]	< 1000	–
O=S(=O)(c1cc(-c2nc(-c3ccc(Br)c(F)c3)c[nH]2)ccc1Cl)N1CCn2c(nnc2C(F)(F)F)C1 [Example 265]	< 1000	–
O=S(=O)(c1cc(-c2nc(-c3ccc(Br)c(F)c3)c[nH]2)ccc1Cl)N1CCCOCC1 [Example 266]	< 1000	–

SMILES	EC50 (HBV) [nM]	CC50 at 3 days [1] [µM]
O=S(=O)(c1cc(-c2nc(-c3ccc(Br)c(F)c3)c[nH]2)ccc1F)N1CCC(O)CC1 [Example 267]	< 1000	–
O=S(=O)(c1cc(-c2ncc(-c3ccc(Br)c(F)c3)[nH]2)ccc1Cl)N1CCC[C@@H](O)C1 [Example 268]	< 1000	–
O=S(=O)(c1cc(-c2ncc(-c3ccc(Br)c(F)c3)[nH]2)ccc1Cl)N1CCCCC(CO)C1 (centres unmarked) [Example 269]	< 1000	–
O=S(=O)(c1cc(-c2ncc(-c3ccc(Br)c(F)c3)[nH]2)ccc1Cl)N1CC[C@H](O)[C@@H](C(F)(F)F)C1 [Example 270]	< 1000	–
O=S(=O)(c1cc(-c2ncc(-c3ccc(Br)c(F)c3)[nH]2)ccc1Cl)N1CC[C@H](O)C1 [Example 271]	< 1000	–
COC(=O)N1C[C@@H]2[C@@H](CNS(=O)(=O)c3cc(-c4ncc(-c5ccc(Br)c(F)c5)[nH]4)ccc3Cl)[C@@H]2C1 [Example 272]	1000 to 10000	–
COC(=O)NC1CN(S(=O)(=O)c2cc(-c3ncc(-c4ccc(Br)c(F)c4)[nH]3)ccc2Cl)C1 [Example 273]	< 1000	–
COC(=O)NCC1CCN(S(=O)(=O)c2cc(-c3ncc(-c4ccc(Br)c(F)c4)[nH]3)ccc2Cl)C1 (centres unmarked) [Example 274]	< 1000	–
O=S(=O)(c1cc(-c2nc(-c3ccc(Br)c(F)c3)c[nH]2)ccc1Cl)N1C[C@H](O)C[C@@H]2C[C@@H]2C1 [Example 275]	< 1000	–
O=S(=O)(c1cc(-c2nc(-c3ccc(Br)c(F)c3)c[nH]2)ccc1Cl)N1CCN(c2ncccc2F)CC1 [Example 276]	< 1000	–
O=S(=O)(c1cc(-c2nc(-c3ccc(Br)c(F)c3)c[nH]2)ccc1Cl)N1CCC[C@@H](O)[C@H](O)C1 [Example 277]	< 1000	–
O=S(=O)(c1cc(-c2nc(-c3ccc(Br)c(F)c3)c[nH]2)ccc1Cl)N1CCC[C@H](O)[C@@H](O)C1 [Example 278]	< 1000	–
O=S(=O)(c1cc(-c2nc(-c3ccc(Br)c(F)c3)c[nH]2)ccc1Cl)N1CCN(c2ncccc2Cl)CC1 [Example 279]	< 1000	–
O=S(=O)(c1cc(-c2nc(-c3ccc(Br)c(F)c3)c[nH]2)ccc1Cl)N1CCN(c2cc(Cl)ccn2)CC1 [Example 280]	< 1000	–
O=S(=O)(c1cc(-c2nc(-c3ccc(Br)c(F)c3)c[nH]2)ccc1Cl)N1CCN(c2ccc(Cl)cn2)CC1 [Example 281]	< 1000	–
O=S(=O)(c1cc(-c2nc(-c3ccc(Br)c(F)c3)c[nH]2)ccc1Cl)N1CCN(c2cccc(Cl)n2)CC1 [Example 282]	< 1000	–
O=S(=O)(c1cc(-c2nc(-c3ccc(Br)c(F)c3)c[nH]2)ccc1Cl)N1C[C@H](O)CC[C@@H](O)C1 [Example 283]	< 1000	–
O=S(=O)(c1cc(-c2nc(-c3ccc(Br)c(F)c3)c[nH]2)ccc1Cl)N1C[C@H](O)CC[C@H](O)C1 [Example 284]	< 1000	–
